Experimental data published in patent US10640802B2 (priority 2012, dated 2020).

Test system: Acidithiobacillus ferrooxidans AfArsR variant C102S (biosensor co-cultured with Burkholderia sp. MR1)
Assay type: cell-based

| SMILES | response of co-cultured biosensor |
| --- | --- |
| O=[As](O)(O)c1ccccc1 [PAA, phenylarsonic acid] | it didn't |
| O=[N+]([O-])c1cc([As](=O)(O)O)ccc1O [Rox(V), 4-hydroxy-3-nitrobenzenearsonic acid] | it didn't |
